In US6632921B1, “Seryl-lysyl-based peptide and peptidomimetic inhibitors of N-myristoyl transferase as anti-infective agents” (G. D Searle & Co, priority 1995, dated 2003):

Tested on: C.alb (516)
Test: Antifungal susceptibility testing, pH 5.4 assay, different strains of Candida
Assay type: cell-based
Conditions: Candida albicans, 24 hr
Procedure: 1) (Assay at DH 5.4/30° C. Incubation/YNB Media).
Antifungal assays were carried out initially by a modification of the method published by Jones, et. al; (1), and communicated to Searle by Dr. Kobayashi, Washington University. [R. N. Jones et al, Manual of Clinical Microbiology, 4th ed., (1985)]
The antifungal susceptibility testing consists of a microdilution broth procedure performed in 96 well microtiter plates (Costar, cat#3799). Briefly, test compounds from a 20 mM stock solution in DMSO are diluted into sterile, deionized water (final DMSO concentration not exceeding 1%), to yield 2× the desired concentration (100 uM, 10 uM and 1 uM for an initial screen, or a selected concentration range in serial 2 fold dilutions for EC50 determination). One hundred microliters (100 ul) of each concentration is dispensed into triplicate wells of a 96 well microtiter plate. Appropriate dilutions of a suspension of C.albicans (1×10^6 cells/ml) in 2× YNB is distributed into each of the wells, including growth control wells containing no test compound as well as control wells with 0.5% DMSO. Amphotericin B at 0.05, 1 and 5 ug/ml is included in each assay plate as a positive control. The plates are incubated at 30° C. and cell growth is scored by reading the absorbance at 590 nm on an Elisa plate reader(Dynatech, MR.5000).

| Structure (SMILES) | EC50 |
| --- | --- |
| Cc1nccn1CCCCc1ccc(CC(=O)N[C@H](CO)C(=O)N[C@H](CCCCN)C(=O)N[C@H](CC2CCCCC2)C(=O)O)cc1 [Comparator Compound A, D-Alanine, 3-cyclohexyl-N-[N^2-[N-[[4-[4-(2-methyl-1H-imidazol-1-yl)butyl]phenyl]acetyl]-D-seryl]-D-lysyl]-, bis-trifluoroacetate] | > 250 µM |
| Cc1nccn1CCCCc1ccc(CC(=O)N[C@@H](CO)C(=O)N[C@@H](CCCCN)C(=O)N[C@@H](CC2CCCCC2)C(=O)O)cc1 [Example 2, L-Alanine, 3-cyclohexyl-N-[N^2-[N-[[4-[4-(2-Methyl-1H-imidazol-1-yl)butyl]phenyl]acetyl]-L-seryl]-L-lysyl]-, bis-trifluoroacetate] | > 250 µM |
